Where two headings read alike, the source gives them in different places.

Assay in all cases: Glasshouse assay for herbicidal activity (pre- and post-emergence), percentage phytotoxicity
Type in all cases: in vivo

In assay [1] the test system is Echinochloa crus-galli (ECHCG). The following applies: Echinochloa crus-galli, rate 250 g/ha. The procedure, abridged: (§1)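 Sow seed in standard soil in pots; apply test herbicide after 1 day (PRE) or about 12 days (POST). Grow on in the glasshouse, watering twice daily, cool-season species at 20/16 °C and warm-season at 24/18 °C. Score visible damage (0–100%) at 20 or 15 DAA respectively.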

The test system of assay [2] is Alopecurus myosuroides (ALOMY). The following applies: Alopecurus myosuroides, rate 250 g/ha. The gist of the method:
as §1

In the next assay the test system is Avena fatua (AVEFA). The following applies: Avena fatua, rate 250 g/ha. The gist of the method: as §1
The next assay deals with Lolium perenne (LOLPE). The following applies: Lolium perenne, rate 250 g/ha. The procedure, abridged:
as §1

Where [3] appears, read: post-emergence, 360 h, POST-emergence, visual score 15 DAA (100%=total damage, 0%=no damage), read-out: Post-emergence herbicidal activity (percentage phytotoxicity) ECHCG POST.
[4] abbreviates: pre-emergence, 480 h, PRE-emergence, visual score 20 DAA (100%=total damage, 0%=no damage), read-out: Pre-emergence herbicidal activity (percentage phytotoxicity) ECHCG PRE.
The mark [5] stands for this setting: post-emergence, 360 h, POST-emergence, visual score 15 DAA (100%=total damage, 0%=no damage), read-out: Post-emergence herbicidal activity (percentage phytotoxicity) ALOMY POST.
The mark [6] stands for this setting: pre-emergence, 480 h, PRE-emergence, visual score 20 DAA (100%=total damage, 0%=no damage), read-out: Pre-emergence herbicidal activity (percentage phytotoxicity) ALOMY PRE.
The mark [7] stands for this setting: post-emergence, 360 h, POST-emergence, visual score 15 DAA (100%=total damage, 0%=no damage), read-out: Post-emergence herbicidal activity (percentage phytotoxicity) AVEFA POST.
The mark [8] stands for this setting: pre-emergence, 480 h, PRE-emergence, visual score 20 DAA (100%=total damage, 0%=no damage), read-out: Pre-emergence herbicidal activity (percentage phytotoxicity) AVEFA PRE.
The mark [9] stands for this setting: post-emergence, 360 h, POST-emergence, visual score 15 DAA (100%=total damage, 0%=no damage), read-out: Post-emergence herbicidal activity (percentage phytotoxicity) LOLPE POST.
Where [10] appears, read: pre-emergence, 480 h, PRE-emergence, visual score 20 DAA (100%=total damage, 0%=no damage), read-out: Pre-emergence herbicidal activity (percentage phytotoxicity) LOLPE PRE.

On to `C#CCN(C)C(=O)CC1CC(=O)C(c2c(C)cc(-n3cc(Cl)cn3)cc2CC)C1=O` (stereo not shown) [Compound B240], for which the pest or weed control at 250 g/ha was 100% in assay [1] (setting [3]); 90% in assay [1] (setting [4]); 100% in assay [2] (setting [5]); 100% in assay [2] (setting [6]); 100% with Avena fatua (AVEFA) (setting [7]); 90% in the assay on Avena fatua (AVEFA) (setting [8]). For the same molecule, the pest or weed control at 250 g/ha is 100% in the assay on Lolium perenne (LOLPE) (setting [9]) and 90% with Lolium perenne (LOLPE) (setting [10]).

Consider `C/C=C/c1cc(C)c(C2C(=O)CC(CC(=O)NCc3cccc(Cl)c3)C2=O)c(C)c1` (stereo not shown) [Compound B241], for which the pest or weed control at 250 g/ha in assay [1] (setting [3]) was 100%; in assay [1] (setting [4]), 70%; in assay [2] (setting [5]) it was 80%; in assay [2] (setting [6]), 60%; in the assay with Avena fatua (AVEFA) (setting [7]), 100%; in the assay with Avena fatua (AVEFA) (setting [8]), 50%. Further, the pest or weed control at 250 g/ha turned out to be 90% with Lolium perenne (LOLPE) (setting [9]) and 80% in the assay on Lolium perenne (LOLPE) (setting [10]).

Regarding `C/C=C/c1cc(C)c(C2C(=O)CC(CC(=O)NCc3cccc(F)c3)C2=O)c(C)c1` (stereo not shown) [Compound B242], the pest or weed control at 250 g/ha stood at 100% in assay [1] (setting [3]); 0% in assay [1] (setting [4]); 90% in assay [2] (setting [5]); 0% in assay [2] (setting [6]); 90% in the assay on Avena fatua (AVEFA) (setting [7]); 0% in the assay on Avena fatua (AVEFA) (setting [8]). For the same molecule, the pest or weed control at 250 g/ha came out at 100% with Lolium perenne (LOLPE) (setting [9]) and 0% in the assay on Lolium perenne (LOLPE) (setting [10]).

As to `C/C=C/c1cc(C)c(C2C(=O)CC(CC(=O)NCc3ccc(OC)cc3)C2=O)c(C)c1` (stereo not shown) [Compound B243], the pest or weed control at 250 g/ha amounted to 90% in assay [1] (setting [3]); 0% in assay [1] (setting [4]); 80% in assay [2] (setting [5]); 0% in assay [2] (setting [6]); 50% in the assay on Avena fatua (AVEFA) (setting [7]); 0% in the assay with Avena fatua (AVEFA) (setting [8]). For the same molecule, the values for the pest or weed control at 250 g/ha in the assay with Lolium perenne (LOLPE) (setting [9]) and with Lolium perenne (LOLPE) (setting [10]) were 70% and 0%, respectively.

Take `C/C=C/c1cc(C)c(C2C(=O)CC(CC(=O)NCc3ccc(C#N)cc3)C2=O)c(C)c1` (stereo not shown) [Compound B244]: the pest or weed control at 250 g/ha was 90% in assay [1] (setting [3]); 0% in assay [1] (setting [4]); 0% in assay [2] (setting [5]); 0% in assay [2] (setting [6]); 80% in the assay on Avena fatua (AVEFA) (setting [7]); 0% with Avena fatua (AVEFA) (setting [8]). In addition, the pest or weed control at 250 g/ha in the assay on Lolium perenne (LOLPE) (setting [9]) was 60%; with Lolium perenne (LOLPE) (setting [10]) it was 0%.

For `C/C=C/c1cc(C)c(C2C(=O)CC(CC(=O)NC(C)C)C2=O)c(C)c1` (stereo not shown) [Compound B245], the pest or weed control at 250 g/ha in assay [1] (setting [3]) was 100%; in assay [1] (setting [4]), 90%; in assay [2] (setting [5]), 100%; in assay [2] (setting [6]), 100%; with Avena fatua (AVEFA) (setting [7]) it was 100%; in the assay on Avena fatua (AVEFA) (setting [8]), 90%. The pest or weed control at 250 g/ha is 100% in the assay on Lolium perenne (LOLPE) (setting [9]) and 90% in the assay with Lolium perenne (LOLPE) (setting [10]).

Consider `C=CCNC(=O)CC1CC(=O)C(c2c(C)cc(/C=C/C)cc2C)C1=O` (stereo not shown) [Compound B246], for which the pest or weed control at 250 g/ha in assay [1] (setting [3]) was found to be 100%; in assay [1] (setting [4]) it was 70%; in assay [2] (setting [5]), 100%; in assay [2] (setting [6]) it was 60%; in the assay with Avena fatua (AVEFA) (setting [7]), 100%; with Avena fatua (AVEFA) (setting [8]) it was 50%. Also, the pest or weed control at 250 g/ha in the assay on Lolium perenne (LOLPE) (setting [9]) turned out to be 100%; with Lolium perenne (LOLPE) (setting [10]), 90%.

`C/C=C/c1cc(C)c(C2C(=O)CC(CC(=O)NCC3CC3)C2=O)c(C)c1` (stereo not shown) [Compound B247]: the pest or weed control at 250 g/ha was 100% in assay [1] (setting [3]); 60% in assay [1] (setting [4]); 100% in assay [2] (setting [5]); 90% in assay [2] (setting [6]); 100% in the assay with Avena fatua (AVEFA) (setting [7]); 80% with Avena fatua (AVEFA) (setting [8]). For the same molecule, the pest or weed control at 250 g/ha is 100% in the assay with Lolium perenne (LOLPE) (setting [9]) and 80% in the assay with Lolium perenne (LOLPE) (setting [10]).

On to `C/C=C/c1cc(C)c(C2C(=O)CC(CC(=O)N(C)CC)C2=O)c(C)c1` (stereo not shown) [Compound B248], for which the pest or weed control at 250 g/ha in assay [1] (setting [3]) turned out to be 100%; in assay [1] (setting [4]) it was 60%; in assay [2] (setting [5]), 100%; in assay [2] (setting [6]), 50%; in the assay with Avena fatua (AVEFA) (setting [7]), 100%; in the assay on Avena fatua (AVEFA) (setting [8]), 50%. The pest or weed control at 250 g/ha in the assay on Lolium perenne (LOLPE) (setting [9]) worked out at 100%; in the assay on Lolium perenne (LOLPE) (setting [10]), 80%.

For `C/C=C/c1cc(C)c(C2C(=O)CC(CC(=O)N(C)C(C)(C)C)C2=O)c(C)c1` (stereo not shown) [Compound B249], the pest or weed control at 250 g/ha was 80% in assay [1] (setting [3]); 80% in assay [1] (setting [4]); 70% in assay [2] (setting [5]); 80% in assay [2] (setting [6]); 70% in the assay with Avena fatua (AVEFA) (setting [7]); 30% with Avena fatua (AVEFA) (setting [8]). For the same molecule, the pest or weed control at 250 g/ha in the assay on Lolium perenne (LOLPE) (setting [9]) was found to be 60%; in the assay with Lolium perenne (LOLPE) (setting [10]), 70%.

For the molecule `C#CCN(C)C(=O)CC1CC(=O)C(c2c(C)cc(/C=C/C)cc2C)C1=O` (stereo not shown) [Compound B250], the pest or weed control at 250 g/ha in assay [1] (setting [3]) stood at 100%; in assay [1] (setting [4]) it was 90%; in assay [2] (setting [5]) it was 100%; in assay [2] (setting [6]), 50%; in the assay on Avena fatua (AVEFA) (setting [7]) it was 90%; in the assay with Avena fatua (AVEFA) (setting [8]) it was 50%. In addition, the figures for the pest or weed control at 250 g/ha in the assay with Lolium perenne (LOLPE) (setting [9]) and in the assay on Lolium perenne (LOLPE) (setting [10]) were 100% and 80%, respectively.

`CCc1cc(C)cc(C)c1C1C(=O)CC(CC(=O)NCc2cccc(Cl)c2)C1=O` (stereo not shown) [Compound B251]: the pest or weed control at 250 g/ha is 100% in assay [1] (setting [3]); 90% in assay [1] (setting [4]); 100% in assay [2] (setting [5]); 90% in assay [2] (setting [6]); 90% in the assay on Avena fatua (AVEFA) (setting [7]); 60% in the assay with Avena fatua (AVEFA) (setting [8]). Further, the pest or weed control at 250 g/ha was determined as 100% in the assay with Lolium perenne (LOLPE) (setting [9]) and 90% in the assay with Lolium perenne (LOLPE) (setting [10]).

As to `CCc1cc(C)cc(C)c1C1C(=O)CC(CC(=O)NCc2cccc(F)c2)C1=O` (stereo not shown) [Compound B252], the pest or weed control at 250 g/ha in assay [1] (setting [3]) was 100%; in assay [1] (setting [4]) it was 100%; in assay [2] (setting [5]), 100%; in assay [2] (setting [6]), 100%; in the assay with Avena fatua (AVEFA) (setting [7]), 90%; in the assay on Avena fatua (AVEFA) (setting [8]), 70%. Also, the pest or weed control at 250 g/ha in the assay on Lolium perenne (LOLPE) (setting [9]) and with Lolium perenne (LOLPE) (setting [10]) was 100% in each case.

As to `CCc1cc(C)cc(C)c1C1C(=O)CC(CC(=O)NCc2ccc(OC)cc2)C1=O` (stereo not shown) [Compound B253], the pest or weed control at 250 g/ha in assay [1] (setting [3]) is 100%; in assay [1] (setting [4]), 90%; in assay [2] (setting [5]), 100%; in assay [2] (setting [6]) it was 100%; in the assay with Avena fatua (AVEFA) (setting [7]), 100%; with Avena fatua (AVEFA) (setting [8]), 80%. Besides, the pest or weed control at 250 g/ha stood at 100% with Lolium perenne (LOLPE) (setting [9]) and 90% in the assay with Lolium perenne (LOLPE) (setting [10]).

For `CCc1cc(C)cc(C)c1C1C(=O)CC(CC(=O)NCc2ccc(C#N)cc2)C1=O` (stereo not shown) [Compound B254], the pest or weed control at 250 g/ha in assay [1] (setting [3]) amounted to 100%; in assay [1] (setting [4]) it was 100%; in assay [2] (setting [5]), 100%; in assay [2] (setting [6]), 90%; in the assay with Avena fatua (AVEFA) (setting [7]), 100%; in the assay with Avena fatua (AVEFA) (setting [8]) it was 90%. Further, the pest or weed control at 250 g/ha in the assay on Lolium perenne (LOLPE) (setting [9]) stood at 100%; in the assay with Lolium perenne (LOLPE) (setting [10]) it was 90%.

Turning to `CCc1cc(C)cc(C)c1C1C(=O)CC(CC(=O)NC(C)C)C1=O` (stereo not shown) [Compound B255], the pest or weed control at 250 g/ha in assay [1] (setting [3]) was 100%; in assay [1] (setting [4]), 100%; in assay [2] (setting [5]) it was 100%; in assay [2] (setting [6]) it was 100%; in the assay with Avena fatua (AVEFA) (setting [7]), 100%; in the assay with Avena fatua (AVEFA) (setting [8]), 80%. The pest or weed control at 250 g/ha in the assay on Lolium perenne (LOLPE) (setting [9]) and with Lolium perenne (LOLPE) (setting [10]) was 100% throughout.

Turning to `C=CCNC(=O)CC1CC(=O)C(c2c(C)cc(C)cc2CC)C1=O` (stereo not shown) [Compound B256], the pest or weed control at 250 g/ha (in assay [1] (setting [3]); in assay [1] (setting [4]); in assay [2] (setting [5]); in assay [2] (setting [6]); with Avena fatua (AVEFA) (setting [7]); in the assay on Avena fatua (AVEFA) (setting [8])) was 100% in each case. Besides, the pest or weed control at 250 g/ha in the assay with Lolium perenne (LOLPE) (setting [9]) and with Lolium perenne (LOLPE) (setting [10]) was 100% in each case.

For the origin of these results see US10206394B2, “Herbicidal compounds” (Syngenta Participations AG, priority 2014, dated 2019).
